Measured values taken from patent publication US11572590B2, “Methods for evaluating tumor cell spheroids using 3D microfluidic cell culture device” (Dana-Farber Cancer Institute, Inc., priority 2017, dated 2023).
Like-named read-outs stand apart in the source and are kept apart here.

What was measured:
Assay in all cases: SelectScreen Kinase Profiling, single point inhibition and IC50 for off-target kinases
Assay type in all cases: biochemical
[1] = target: off-target kinases (Homo sapiens, UniProt P07947); conditions: YES1, ATP Km app, ZLYTE
[2] = target: off-target kinases (Homo sapiens, UniProt P29597); conditions: TYK2, ATP Km app, ZLYTE
[3] = target: off-target kinases (Homo sapiens, UniProt P15056, V600E); conditions: BRAF V599E
[4] = target: off-target kinases (Homo sapiens, UniProt Q13882)
[5] = target: off-target kinases (Homo sapiens, UniProt Q02763); conditions: TEK (Tie2), ZLYTE, ATP Km app
[6] = target: off-target kinases (Homo sapiens, UniProt P10721, D816V); conditions: KIT D816V, LanthaScreen Binding
Sequence of off-target kinases (Homo sapiens, UniProt P10721, D816V) (P10721 26-976 D816V): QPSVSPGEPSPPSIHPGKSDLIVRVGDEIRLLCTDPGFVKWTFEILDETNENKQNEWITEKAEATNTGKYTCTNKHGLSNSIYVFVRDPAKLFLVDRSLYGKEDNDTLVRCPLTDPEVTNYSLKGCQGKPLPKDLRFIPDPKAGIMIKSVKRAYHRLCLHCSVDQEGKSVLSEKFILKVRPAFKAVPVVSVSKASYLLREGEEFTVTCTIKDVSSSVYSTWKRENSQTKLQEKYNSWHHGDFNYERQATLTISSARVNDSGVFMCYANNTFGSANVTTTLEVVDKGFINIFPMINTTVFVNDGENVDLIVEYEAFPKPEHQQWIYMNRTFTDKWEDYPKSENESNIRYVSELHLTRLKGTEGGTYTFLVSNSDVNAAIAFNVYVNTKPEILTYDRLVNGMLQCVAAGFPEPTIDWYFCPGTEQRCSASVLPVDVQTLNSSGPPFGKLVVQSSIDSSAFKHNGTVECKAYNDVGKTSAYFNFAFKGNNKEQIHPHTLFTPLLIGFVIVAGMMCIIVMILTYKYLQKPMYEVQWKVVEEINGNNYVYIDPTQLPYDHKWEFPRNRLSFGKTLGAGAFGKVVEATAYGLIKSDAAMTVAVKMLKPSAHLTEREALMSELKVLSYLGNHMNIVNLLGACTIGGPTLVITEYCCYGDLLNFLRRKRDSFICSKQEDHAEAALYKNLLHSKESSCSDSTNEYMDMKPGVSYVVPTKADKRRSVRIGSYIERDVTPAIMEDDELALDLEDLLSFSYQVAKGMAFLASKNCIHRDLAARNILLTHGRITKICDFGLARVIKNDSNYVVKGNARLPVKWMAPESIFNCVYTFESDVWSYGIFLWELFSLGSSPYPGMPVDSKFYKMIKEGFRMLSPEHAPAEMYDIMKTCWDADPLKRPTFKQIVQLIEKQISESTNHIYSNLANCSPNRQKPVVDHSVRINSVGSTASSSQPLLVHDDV

Sequence of off-target kinases (Homo sapiens, UniProt Q13882) (Q13882 whole entry): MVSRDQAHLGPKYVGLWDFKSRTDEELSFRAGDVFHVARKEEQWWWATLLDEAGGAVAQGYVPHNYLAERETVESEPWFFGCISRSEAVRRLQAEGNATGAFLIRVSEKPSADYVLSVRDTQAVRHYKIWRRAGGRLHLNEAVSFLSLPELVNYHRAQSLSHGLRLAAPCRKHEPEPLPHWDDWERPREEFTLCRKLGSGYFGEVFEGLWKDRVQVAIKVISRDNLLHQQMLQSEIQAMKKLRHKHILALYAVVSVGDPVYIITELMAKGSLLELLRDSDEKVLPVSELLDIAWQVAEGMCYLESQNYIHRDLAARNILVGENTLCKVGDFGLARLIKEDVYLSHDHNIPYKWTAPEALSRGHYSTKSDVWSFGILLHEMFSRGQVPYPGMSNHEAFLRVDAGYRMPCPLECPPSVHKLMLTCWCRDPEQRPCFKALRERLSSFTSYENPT
Sequence of off-target kinases (Homo sapiens, UniProt P15056, V600E) (P15056 whole entry V600E): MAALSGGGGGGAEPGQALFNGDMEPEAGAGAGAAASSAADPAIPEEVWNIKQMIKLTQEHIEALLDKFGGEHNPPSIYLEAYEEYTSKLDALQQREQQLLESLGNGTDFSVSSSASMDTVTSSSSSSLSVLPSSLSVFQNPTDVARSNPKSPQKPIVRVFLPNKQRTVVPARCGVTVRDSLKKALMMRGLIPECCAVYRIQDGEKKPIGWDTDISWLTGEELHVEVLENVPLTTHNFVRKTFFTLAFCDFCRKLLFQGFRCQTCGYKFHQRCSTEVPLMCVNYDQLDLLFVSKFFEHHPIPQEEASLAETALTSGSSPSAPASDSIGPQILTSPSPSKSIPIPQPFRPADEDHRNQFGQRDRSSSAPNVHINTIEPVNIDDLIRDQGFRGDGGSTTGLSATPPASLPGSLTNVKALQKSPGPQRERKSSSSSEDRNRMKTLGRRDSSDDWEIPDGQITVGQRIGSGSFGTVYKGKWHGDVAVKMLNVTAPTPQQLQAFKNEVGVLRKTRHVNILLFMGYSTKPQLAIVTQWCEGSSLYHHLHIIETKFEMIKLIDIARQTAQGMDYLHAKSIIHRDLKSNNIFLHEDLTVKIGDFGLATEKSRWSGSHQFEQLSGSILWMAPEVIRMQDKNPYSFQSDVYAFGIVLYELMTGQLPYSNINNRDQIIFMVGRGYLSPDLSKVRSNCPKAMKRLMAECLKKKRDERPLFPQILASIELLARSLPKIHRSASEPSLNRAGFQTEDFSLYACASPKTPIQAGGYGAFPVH
Sequence of off-target kinases (Homo sapiens, UniProt P29597) (P29597 whole entry): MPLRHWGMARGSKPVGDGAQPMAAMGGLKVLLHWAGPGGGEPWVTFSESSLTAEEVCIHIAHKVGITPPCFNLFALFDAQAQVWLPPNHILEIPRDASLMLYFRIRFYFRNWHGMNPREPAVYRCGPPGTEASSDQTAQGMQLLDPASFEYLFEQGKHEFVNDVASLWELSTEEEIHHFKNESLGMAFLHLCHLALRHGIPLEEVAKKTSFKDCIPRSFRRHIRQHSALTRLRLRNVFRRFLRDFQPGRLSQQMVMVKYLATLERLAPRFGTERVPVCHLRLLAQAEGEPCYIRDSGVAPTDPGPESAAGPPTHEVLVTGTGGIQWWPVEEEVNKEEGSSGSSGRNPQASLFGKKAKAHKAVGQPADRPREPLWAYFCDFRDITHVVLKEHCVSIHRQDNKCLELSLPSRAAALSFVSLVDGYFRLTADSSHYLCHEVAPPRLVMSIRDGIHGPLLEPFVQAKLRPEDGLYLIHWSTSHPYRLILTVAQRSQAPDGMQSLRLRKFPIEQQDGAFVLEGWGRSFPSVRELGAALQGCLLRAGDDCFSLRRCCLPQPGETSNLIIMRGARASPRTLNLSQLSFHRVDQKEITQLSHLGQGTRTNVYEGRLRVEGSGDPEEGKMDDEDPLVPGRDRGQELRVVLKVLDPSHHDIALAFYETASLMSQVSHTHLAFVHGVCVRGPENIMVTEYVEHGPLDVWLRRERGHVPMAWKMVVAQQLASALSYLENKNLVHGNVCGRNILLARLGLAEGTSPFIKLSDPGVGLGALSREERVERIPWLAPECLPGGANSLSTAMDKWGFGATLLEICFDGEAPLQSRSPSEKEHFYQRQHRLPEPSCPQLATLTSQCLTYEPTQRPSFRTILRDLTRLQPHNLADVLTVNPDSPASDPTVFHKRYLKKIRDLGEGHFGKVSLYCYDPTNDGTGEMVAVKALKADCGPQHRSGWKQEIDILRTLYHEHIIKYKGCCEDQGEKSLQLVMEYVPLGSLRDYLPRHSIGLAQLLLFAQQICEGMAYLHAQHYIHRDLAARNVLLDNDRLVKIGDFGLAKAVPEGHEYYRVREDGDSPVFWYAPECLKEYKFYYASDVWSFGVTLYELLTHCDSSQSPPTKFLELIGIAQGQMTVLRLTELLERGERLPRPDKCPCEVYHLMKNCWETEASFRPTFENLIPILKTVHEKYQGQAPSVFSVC
Sequence of off-target kinases (Homo sapiens, UniProt Q02763) (Q02763 23-1124): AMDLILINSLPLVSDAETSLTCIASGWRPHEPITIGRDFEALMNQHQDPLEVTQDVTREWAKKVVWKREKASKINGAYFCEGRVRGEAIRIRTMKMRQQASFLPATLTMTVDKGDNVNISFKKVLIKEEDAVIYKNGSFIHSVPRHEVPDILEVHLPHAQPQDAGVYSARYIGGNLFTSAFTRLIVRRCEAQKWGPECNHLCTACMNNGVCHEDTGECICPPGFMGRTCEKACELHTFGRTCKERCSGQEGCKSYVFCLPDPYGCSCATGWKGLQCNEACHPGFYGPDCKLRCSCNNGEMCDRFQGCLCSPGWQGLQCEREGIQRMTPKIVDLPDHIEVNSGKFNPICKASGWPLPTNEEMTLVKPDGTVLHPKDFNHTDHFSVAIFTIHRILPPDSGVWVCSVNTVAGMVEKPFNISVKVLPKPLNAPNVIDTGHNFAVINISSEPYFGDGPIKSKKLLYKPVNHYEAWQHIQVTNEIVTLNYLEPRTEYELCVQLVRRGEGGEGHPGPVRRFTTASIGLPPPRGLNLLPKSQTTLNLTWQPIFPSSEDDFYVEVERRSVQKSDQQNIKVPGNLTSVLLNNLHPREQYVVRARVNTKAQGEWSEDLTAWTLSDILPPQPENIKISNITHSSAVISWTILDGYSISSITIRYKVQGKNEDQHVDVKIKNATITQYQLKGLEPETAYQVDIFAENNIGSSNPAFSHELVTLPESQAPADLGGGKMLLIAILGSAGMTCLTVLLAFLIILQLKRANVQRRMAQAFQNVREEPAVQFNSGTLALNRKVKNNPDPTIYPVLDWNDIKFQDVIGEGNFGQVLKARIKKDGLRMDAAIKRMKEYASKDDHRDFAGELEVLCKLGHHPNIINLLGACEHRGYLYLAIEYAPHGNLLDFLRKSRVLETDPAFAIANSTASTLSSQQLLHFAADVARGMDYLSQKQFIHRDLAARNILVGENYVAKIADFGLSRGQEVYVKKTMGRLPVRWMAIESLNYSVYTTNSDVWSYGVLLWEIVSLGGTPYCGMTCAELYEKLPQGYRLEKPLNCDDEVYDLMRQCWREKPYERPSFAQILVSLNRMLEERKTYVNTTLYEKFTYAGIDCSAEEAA
Sequence of off-target kinases (Homo sapiens, UniProt P07947) (P07947 whole entry): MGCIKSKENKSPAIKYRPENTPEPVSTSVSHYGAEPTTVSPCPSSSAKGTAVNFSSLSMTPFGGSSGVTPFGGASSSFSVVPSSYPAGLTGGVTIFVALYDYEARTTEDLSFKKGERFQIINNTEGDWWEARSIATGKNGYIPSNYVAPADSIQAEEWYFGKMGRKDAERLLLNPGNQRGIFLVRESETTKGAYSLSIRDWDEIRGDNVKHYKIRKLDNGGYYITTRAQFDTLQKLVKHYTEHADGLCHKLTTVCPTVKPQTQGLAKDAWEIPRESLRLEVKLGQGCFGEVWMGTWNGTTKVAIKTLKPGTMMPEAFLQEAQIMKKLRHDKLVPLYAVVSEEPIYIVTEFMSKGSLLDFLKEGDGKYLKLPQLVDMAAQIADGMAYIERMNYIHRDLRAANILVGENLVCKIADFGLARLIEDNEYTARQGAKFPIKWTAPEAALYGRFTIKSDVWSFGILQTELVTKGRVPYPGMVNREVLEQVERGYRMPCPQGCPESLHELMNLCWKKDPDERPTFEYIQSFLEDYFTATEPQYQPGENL

In the case of `N#Cc1cc(-c2ncnc(Nc3ccc(N4CCN(C5COC5)CC4)cc3)n2)ccc1OC1CCOCC1` [Compound 1, 5-(4-((4-(4-(oxetan-3-yl)piperazin-1-yl)phenyl)amino)-1,3,5-triazin-2-yl)-2-((tetrahydro-2H-pyran-4-yl)oxy)benzonitrile], the inhibition ([1]; read-out: % Inhibition 1) is reported as 55%, the inhibition ([1]; read-out: % Inhibition 2) is reported as 51% and the inhibition ([1]; read-out: % Inhibition Avg) is reported as 53%. It also gave an inhibition ([2]; read-out: % Inhibition 1) of 65%, an inhibition ([2]; read-out: % Inhibition 2) of 64% and an inhibition ([2]; read-out: % Inhibition Avg) of 64%. The inhibition ([3]; ATP 100, ZLYTE, read-out: % Inhibition 1) was 63%, the inhibition ([3]; ATP 100, ZLYTE, read-out: % Inhibition 2) was 61% and the inhibition ([3]; ATP 100, ZLYTE, read-out: % Inhibition Avg) was 62%. The inhibition ([3]; LanthaScreen Binding, read-out: % Inhibition 1) was 50%, the inhibition ([3]; LanthaScreen Binding, read-out: % Inhibition 2) was 53% and the inhibition ([3]; LanthaScreen Binding, read-out: % Inhibition Avg) was 52%. The inhibition ([4]; PTK6 (Brk), ZLYTE, ATP Km app, read-out: % Inhibition 2) was -1%, the inhibition ([4]; read-out: % Inhibition 1) was -1% and the inhibition ([4]; read-out: % Inhibition Avg) was -1%. For the same molecule, the inhibition ([5]; read-out: % Inhibition 1) was 11%, the inhibition ([5]; read-out: % Inhibition 2) was 17% and the inhibition ([5]; read-out: % Inhibition Avg) was 14%. It also gave an inhibition ([6]; read-out: % Inhibition 1) of 83%, an inhibition ([6]; read-out: % Inhibition 2) of 83% and an inhibition ([6]; read-out: % Inhibition Avg) of 83%.
